Data set [1] is described as follows: pKa of amine lipid by TNS fluorescence. It counts as physicochemical. As to conditions: probe TNS (6-(p-toluidino)-2-naphthalenesulfonic acid sodium salt), unformulated amine lipid in ethanol, sodium phosphate buffers -9.0. The gist of the method:
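pKa derived from a sigmoidal fit of normalized TNS fluorescence (321 nm excitation, 448 nm emission) versus pH. Lipid from ethanol stock diluted to about 100 μM final in 0.1 M phosphate buffers, pH 4.5–9.0.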

Data set [2] is described as follows: LNP average particle size and polydispersity by dynamic light scattering. In kind it is physicochemical. The conditions noted are these: LNP with the compound as amine lipid. The gist of the method: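 LNPs were diluted in PBS to a count rate of about 200-400 kcps and measured by DLS on a Zetasizer. Size is the intensity-weighted Z-average diameter, reported with number-average diameter, and the polydispersity index describes the spread of sizes around the mean.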

Data set [3] in a line: RNA encapsulation efficiency of LNP (Ribogreen fluorescence assay). As to conditions: LNP with the compound as amine lipid. In kind it is physicochemical. The method, boiled down:
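LNP samples diluted in 1× TE with or without 0.2% Triton-X 100 for total or free RNA, stained ~10 min at room temperature in the dark with RiboGreen; fluorescence ex 488/em 525 nm against RNA standard curves. Encapsulation efficiency = (Total RNA−Free RNA)/Total RNA.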

Another data set has as its system mouse TTR. Briefly: Serum TTR ELISA in mice after LNP delivery. The conditions noted are these: mouse serum, relative to TSS control of same experiment. In kind it is in vivo. The gist of the method: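 Mouse TTR in serum was quantified by ELISA (samples diluted e.g. 10,000- and/or 2,500-fold) 6–7 days after dosing CD-1 females with LNP, typically 0.1 mpk. Values are reported relative to vehicle-treated controls (%).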
A general note: An ELISA detects its analyte on a solid surface through an enzyme-linked reagent.

Setting [4] is: Expt. 8, composition ratio (mol %) 50/9/38/3 for Cmpnd 49, 50/10/38.5/1.5 for the others.
Setting [5] is: Expt. 10, composition ratio (mol %) 50/9/38/3 for Cmpnd 49, 50/10/38.5/1.5 for the others.
Where [6] appears, read: Expt. 5, composition ratio (mol %) 50/10/38.5/1.5.
The mark [7] stands for this setting: Expt. 9, composition ratio (mol %) 50/9/38/3 for Cmpnd 49, 50/10/38.5/1.5 for the others.
Setting [8] is: Expt. 4, composition ratio (mol %) 50/9/38/3 for Cmpnd 49, 50/10/38.5/1.5 for the others.
The mark [9] stands for this setting: Expt. 6, composition ratio (mol %) 50/9/38/3 for Cmpnd 49, 50/10/38.5/1.5 for the others.
[10] abbreviates: Expt. 7, composition ratio (mol %) 50/9/38/3 for Cmpnd 49, 50/10/38.5/1.5 for the others.

`CCCCC/C=C\C/C=C\CCCCCCCC(=O)OCC(COC(=O)CCCCCCC/C=C\C/C=C\CCCCC)OC(=O)CCC(CCCCCCC)OC(=O)NCC1CCCN1C` (stereo not shown) [Compound 74, 2-((4-((((1-methylpyrrolidin-2-yl)methyl)carbamoyl)oxy)undecanoyl)oxy)propane-1,3-diyl (9Z,9′Z,12Z,12′Z)-bis(octadeca-9,12-dienoate)]: the pKa in data set [1] was 6.44. In data set [2] (setting [4]), the “Num Ave Size (nm)” value is 74.58 nm, the PDI is given as 0.024 and the “Z-Ave Size (nm)” value is listed as 92.14 nm. Further, the “Encapsulation (%)” value in data set [3] (setting [4]) came out at 99%. Also, in the data set with mouse TTR (dose 0.03 mpk), the “Serum TTR % TSS” value is 100.54 % TSS. In addition, the “Serum TTR % TSS” value in the data set with mouse TTR (dose 0.1 mpk) is 110.06 % TSS.
Turning to `CCCCC/C=C\C/C=C\CCCCCCCC(=O)OCC(COC(=O)CCCCCCC/C=C\C/C=C\CCCCC)OC(=O)CCCC(CCCCCCCC)OC(=O)NCCN(C)CC` (stereo not shown) [Compound 97, 2-((5-(((2-(ethyl(methyl)amino)ethyl)carbamoyl)oxy)tridecanoyl)oxy)propane-1,3-diyl (9Z,9′Z,12Z,12′Z)-bis(octadeca-9,12-dienoate)], in data set [1], the pKa came out at 6.38. In data set [2] (setting [5]), the “Num Ave Size (nm)” value is 75 nm, the PDI worked out at 0.03 and the “Z-Ave Size (nm)” value amounted to 92 nm. The Encapsulation (%) in data set [3] (setting [5]) came out at 98%. Moreover, in the data set with mouse TTR (dose 0.03 mpk), the “Serum TTR % TSS” value was determined as 79% TSS.
As to `CCCCC/C=C\C/C=C\CCCCCCCC(=O)OCC(COC(=O)CCCCCCC/C=C\C/C=C\CCCCC)OC(=O)CCC(CCCCCC)OC(=O)NCCN1CCCCC1` (stereo not shown) [Compound 78, 2-((4-(((2-(piperidin-1-yl)ethyl)carbamoyl)oxy)decanoyl)oxy)propane-1,3-diyl (9Z,9′Z,12Z,12′Z)-bis(octadeca-9,12-dienoate)], the pKa in data set [1] is 5.93. Besides, in data set [2] (setting [6]), the “Num Ave Size (nm)” value was 59 nm, the PDI came to 0.13 and the “Z-Ave Size (nm)” value is reported as 91.00 nm. Besides, in data set [3] (setting [6]), the “Encapsulation (%)” value came to 97%. In addition, the “Serum TTR % TSS” value in the data set on mouse TTR (dose 0.03 mpk) was found to be 99.8 % TSS. In addition, in the data set with mouse TTR (dose 0.1 mpk), the “Serum TTR % TSS” value amounted to 66.5 % TSS.
Turning to `CCCCC/C=C\C/C=C\CCCCCCCC(=O)OCC(COC(=O)CCCCCCC/C=C\C/C=C\CCCCC)OC(=O)CCC(CCCCCC)OC(=O)NC1CN(C)C1` (stereo not shown) [Compound 84, 2-((4-(((1-methylazetidin-3-yl)carbamoyl)oxy)decanoyl)oxy)propane-1,3-diyl (9Z,9′Z,12Z,12′Z)-bis(octadeca-9,12-dienoate)], the pKa in data set [1] was 7.39. In data set [2] (setting [6]), the “Num Ave Size (nm)” value was found to be 75 nm, the PDI is reported as 0.03 and the “Z-Ave Size (nm)” value was 91.00 nm. Besides, in data set [3] (setting [6]), the “Encapsulation (%)” value amounted to 99%. For the same compound, the “Serum TTR % TSS” value in the data set with mouse TTR (dose 0.03 mpk) is 80.3 % TSS. Also, the “Serum TTR % TSS” value with mouse TTR (dose 0.1 mpk) is 73.2 % TSS.
For `CCCCC/C=C\C/C=C\CCCCCCCC(=O)OCC(COC(=O)CCCCCCC/C=C\C/C=C\CCCCC)OC(=O)CCC(CCC(C)CCCC(C)C)OC(=O)NCCN1CCCC1` (stereo not shown) [Compound 105, 2-((7,11-dimethyl-4-(((2-(pyrrolidin-1l-yl)ethyl)carbamoyl)oxy)dodecanoyl)oxy)propane-1,3-diyl (9Z,9′Z,12Z,12′Z)-bis(octadeca-9,12-dienoate)], in data set [1], the pKa stood at 6.53. For the same compound, in data set [2] (setting [7]), the “Num Ave Size (nm)” value worked out at 64 nm, the PDI came to 0.02 and the “Z-Ave Size (nm)” value was found to be 80 nm. Besides, the “Encapsulation (%)” value in data set [3] (setting [7]) amounted to 99%. For the same compound, the “Serum TTR % TSS” value with mouse TTR (dose 0.03 mpk) is recorded as 47.97 % TSS.
As to `CCCCC/C=C\C/C=C\CCCCCCCC(=O)OCC(COC(=O)CCCCCCC/C=C\C/C=C\CCCCC)OC(=O)CCC(CCCCCC)OC(=O)NC(C)(C)CN1CCCC1` (stereo not shown) [Compound 79, 2-((4-(((2-methyl-1-(pyrrolidin-1-yl)propan-2-yl)carbamoyl)oxy)decanoyl)oxy)propane-1,3-diyl (9Z,9′Z,12Z,12′Z)-bis(octadeca-9,12-dienoate)], the pKa in data set [1] turned out to be 4.96. In addition, in data set [2] (setting [6]), the “Num Ave Size (nm)” value came out at 55 nm, the PDI stood at 0.09 and the “Z-Ave Size (nm)” value amounted to 75.00 nm. Also, the “Encapsulation (%)” value in data set [3] (setting [6]) was determined as 98%. Also, the “Serum TTR % TSS” value in the data set on mouse TTR (dose 0.03 mpk) was 86.9 % TSS. Moreover, the “Serum TTR % TSS” value in the data set with mouse TTR (dose 0.1 mpk) was 100.4 % TSS.
As to `CCCCC/C=C\C/C=C\CCCCCCCC(=O)OCC(COC(=O)CCCCCCC/C=C\C/C=C\CCCCC)OC(=O)CCC(CCCCCCC)OC(=O)NCCN(C)CC` (stereo not shown) [Compound 73, 2-((4-(((2-(ethyl(methyl)amino)ethyl)carbamoyl)oxy)undecanoyl)oxy)propane-1,3-diyl (9Z,9′Z,12Z,12′Z)-bis(octadeca-9,12-dienoate)], the pKa in data set [1] came out at 6.41. For the same compound, in data set [2] (setting [8]), the “Num Ave Size (nm)” value is listed as 76.59 nm, the PDI amounted to 0.029 and the “Z-Ave Size (nm)” value was found to be 95.81 nm. In addition, the “Encapsulation (%)” value in data set [3] (setting [8]) stood at 97%. For the same compound, the “Serum TTR % TSS” value in the data set on mouse TTR (dose 0.03 mpk) was 25% TSS. The “Serum TTR % TSS” value with mouse TTR (dose 0.1 mpk) is 4% TSS.
On to `CCCCC/C=C\C/C=C\CCCCCCCC(=O)OCC(COC(=O)CCCCCCC/C=C\C/C=C\CCCCC)OC(=O)C1(C(CCCCCCCC)OC(=O)NCCN(C)CC)CC1` (stereo not shown) [Compound 86, 2-((1-(1-(((2-(ethyl(methyl)amino)ethyl)carbamoyl)oxy)nonyl)cyclopropane-1-carbonyl)oxy)propane-1,3-diyl (9Z,9′Z,12Z,12′Z)-bis(octadeca-9,12-dienoate)], for which the pKa in data set [1] came out at 6.23. In data set [2] (setting [9]), the “Num Ave Size (nm)” value was 68 nm, the PDI is listed as 0.04 and the “Z-Ave Size (nm)” value amounted to 87.00 nm. Also, the “Encapsulation (%)” value in data set [3] (setting [9]) is given as 98%. In the data set on mouse TTR (dose 0.03 mpk), the “Serum TTR % TSS” value was 93.10 % TSS. Besides, the “Serum TTR % TSS” value in the data set on mouse TTR (dose 0.1 mpk) was determined as 28.80 % TSS.
Turning to `CCCCC/C=C\C/C=C\CCCCCCCC(=O)OCC(COC(=O)CCCCCCC/C=C\C/C=C\CCCCC)OC(=O)CCC(CCCCCCCC)OC(=O)NCCN1CCC1` (stereo not shown) [Compound 93, 2-((4-(((2-(azetidin-1-yl)ethyl)carbamoyl)oxy)dodecanoyl)oxy)propane-1,3-diyl (9Z,9′Z,12Z,12′Z)-bis(octadeca-9,12-dienoate)], the pKa in data set [1] was determined as 6.96. Moreover, in data set [2] (setting [5]), the “Num Ave Size (nm)” value was 86 nm, the PDI was determined as 0.01 and the “Z-Ave Size (nm)” value came out at 103 nm. Besides, in data set [3] (setting [5]), the Encapsulation (%) stood at 98%. In addition, the “Serum TTR % TSS” value in the data set on mouse TTR (dose 0.03 mpk) amounted to 100% TSS.
For the compound `CCCCC/C=C\C/C=C\CCCCCCCC(=O)OCC(COC(=O)CCCCCCC/C=C\C/C=C\CCCCC)OC(=O)CCC(CCCCCCCCCC)OC(=O)OCCCN1CCCC1` (stereo not shown) [Compound 66, 2-((4-(((3-(pyrrolidin-1-yl)propoxy)carbonyl)oxy)tetradecanoyl)oxy)propane-1,3-diyl (9Z,9′Z,12Z,12′Z)-bis(octadeca-9,12-dienoate)], the pKa in data set [1] turned out to be 6.15. In addition, in data set [2] (setting [10]), the “Num Ave Size (nm)” value is reported as 65.07 nm, the PDI worked out at 0.035 and the “Z-Ave Size (nm)” value is 79.79 nm. Moreover, in data set [3] (setting [10]), the “Encapsulation (%)” value was determined as 98%. In addition, the “Serum TTR % TSS” value in the data set on mouse TTR (dose 0.03 mpk) is on record as 54.682 % TSS. In addition, in the data set with mouse TTR (dose 0.1 mpk), the “Serum TTR % TSS” value is recorded as 19.674 % TSS.
Regarding `CCCCC/C=C\C/C=C\CCCCCCCC(=O)OCC(COC(=O)CCCCCCC/C=C\C/C=C\CCCCC)OC(=O)CC[C@@H](CCCCCC)OC(=O)NCCN1CCCC1` [Compound 90, 2-(((R)-4-(((2-(pyrrolidin-1-yl)ethyl)carbamoyl)oxy)decanoyl)oxy)propane-1,3-diyl (9Z,9′Z,12Z,12′Z)-bis(octadeca-9,12-dienoate)], the pKa in data set [1] worked out at 6.8. Also, in data set [2] (setting [7]), the “Num Ave Size (nm)” value stood at 81 nm, the PDI stood at 0.02 and the “Z-Ave Size (nm)” value amounted to 99 nm. Also, the “Encapsulation (%)” value in data set [3] (setting [7]) is listed as 98%. Besides, the “Serum TTR % TSS” value in the data set on mouse TTR (dose 0.03 mpk) is recorded as 59.95 % TSS.
With `CCCCC/C=C\C/C=C\CCCCCCCC(=O)OCC(COC(=O)CCCCCCC/C=C\C/C=C\CCCCC)OC(=O)CC[C@H](CCCCCC)OC(=O)NCCN1CCCC1` [Compound 89, 2-(((S)-4-(((2-(pyrrolidin-1-yl)ethyl)carbamoyl)oxy)decanoyl)oxy)propane-1,3-diyl (9Z,9′Z,12Z,12′Z)-bis(octadeca-9,12-dienoate)], in data set [1], the pKa is 6.76. Moreover, in data set [2] (setting [7]), the “Num Ave Size (nm)” value is listed as 73 nm, the PDI is given as 0.01 and the “Z-Ave Size (nm)” value is listed as 88 nm. In addition, the “Encapsulation (%)” value in data set [3] (setting [7]) is 98%. Also, the “Serum TTR % TSS” value in the data set on mouse TTR (dose 0.03 mpk) is recorded as 48.65 % TSS.

What is called pKa is the negative logarithm of the acid dissociation constant.

The record behind these values is patent US12077483B2, “Modified amine lipids” (Intellia Therapeutics, Inc., priority 2018, dated 2024).
